Measured values reported in US12083115B2, “Methods for treating neurological symptoms associated with lysosomal storage diseases” (Genzyme Corporation, priority 2020, dated 2024).

Key:
glucosylceramide (GL-1) = assay: Clinical study in GD-3 patients: GL-1 in plasma and CSF; assay type: in vivo, human; conditions: for GL-1 (% change): 52-weeks compared to baseline; for GL-1 concentration, 52-weeks (mean) / GL-1 concentration, 52-weeks: 15 mg/day + imiglucerase; for GL-1 concentration, 52-weeks: all six patients
Description: The endpoint assessments are related to safety, CSF biomarkers, pharmacokinetics/pharmacodynamics, systemic disease, and neuroimaging and neurological function (CNS/neurological manifestations).
During the study patients were evaluated for safety and tolerability, CSF and plasma biomarkers (glucosylceramide, GL-1; glucosylsphingosine, lyso-GL1), pharmacokinetics, markers for systemic disease (spleen and liver volume measured by magnetic resonance imaging (MRI), platelet count, hemoglobin levels), indicia of interstitial lung disease (high resolution pulmonary computed tomography (CT)), and horizontal saccadic eye movement. In addition, exploratory biomarkers were quantified in CSF of GD3 patients: ceramide (the precursor of GL-1), chitotriosidase (CHITO), GM3, and GPNMB. Symptoms of ataxia were measured using the SARA scale, neurological symptoms were measured using the trail making test, and functional MRI was used to assess neural connectivity in the brain.
Over all six GD3 patients, plasma and CSF GL-1 and lyso-GL-1 concentrations were as follows:
At Week 52, the CSF lyso-GL1 concentrations for Patient 5 were above the upper limit of quantification (ULOQ; >100 pg/mL), and biomarker results for CSF lyso-GL1 were therefore imputed using the exact ULOQ values. […] Mean results for the other study subjects were as follows (N=10; Patient 5 excluded): […]

[1] = tested on: adult patients with Gaucher disease Type 3; assay: Clinical study in GD-3 patients: vMRI brain tissue volume (TBM analysis); assay type: in vivo, human; conditions: for Group A mean change in volume from Baseline to Week 52: Group A (eight patients), 15 mg/day + imiglucerase; for Patient 5 change in volume from Baseline to Week 52: Patient 5 (Compound 2 below LLOQ after 52 weeks)
From the text: Neurological function was further evaluated using volumetric magnetic resonance imaging (vMRI). The vMRI data was collected at screening sessions at baseline and after 52 weeks of the treatment regime for eight patients (“Group A”) and an additional isolated patient (Patient 5). Group A corresponds to the eleven patients described above, excluding Patient 5 and two other patients lacking analyzable vMRI data.
vMRI data was obtained and subsequently analyzed using FreeSurfer anatomic parcellation and a Tensor-Based Morphometry (TBM) analysis cycle. FreeSurfer is an opensource software package for the analysis and visualization of structural and functional neuroimaging data developed by the Laboratory for Computational Neuroimaging. TBM analysis (also known as Jacobian Integration) consists in estimating the volume changes as captured within the deformation fields resulting from applying a symmetric deformable registration technique between a pair of MR scans (baseline and follow-up), using a non-linear symmetric log-demons deformation technique using robust cross-correlation metric to ensure invertibility of the transformation (symmetric process). The deformation field is then analyzed by computing the determinant of its Jacobian matrix, which is a measure of local volume change. An integration of the determinant over a region of interest provides an estimation of the change rate of the volume of this brain region over time.
The overall pipeline takes as input a baseline (BL) and a follow-up (FU) image and consists of the following steps: • 1. Preprocessing and reformatting; • 2. Segmentation of baseline (BL) and follow-up (FU) using FreeSurfer; • 3. Multi-resolution rigid and affine registration of FU and BL to midspace; • 4. Symmetric deformable nonlinear registration between FU and BL; • 5. Jacobian image computation; • 6. Voxel-wise volume change computation; • 7. Region-wise volume change integration; and • 8. Output for the changes for regions of interest specified for the study.

[2] = tested on: GM3 expression in B16 mouse melanoma cells; assay: GM3 fluorescent-linked immunosorbent assay (FLISA), B16; assay type: cell-based; conditions: 48 hours
From the text: Inhibition of glucosylceramide synthase activity can be measured with one or more assays. A first assay is a microsomal assay that directly measures the conversion of ceramide to glucosylceramide by HPLC. Microsomes are a source of glucosylceramide synthase activity in the microsomal assay. A second assay is a cell based, phenotypic assay that monitors cell surface expression of the downstream lipid GM3 by antibody mediated immunofluorescence. Specific protocols are provided below.
This is a phenotypic assay that measures GM3 expression in B16 mouse melanoma or C32 human melanoma cells following treatment with test compounds. Cell surface GM3 expression is determined by antibody mediated fluorescence.
Compounds are diluted in media and plated in 384 well plates in DMSO. B16 and C32 cells are assayed at densities of 20,000 cells/ml and 62,500 cells/ml, respectively, per well. Each titration curve contains 10 points that are assayed in duplicate on each test run. The plates are incubated for 48 hours at 37° C., 5% CO2, and are then washed once with TBS. Anti-GM3 antibody is added to each well and the plates are then incubated for an additional one hour at room temperature. Plates are subsequently washed twice and incubated for an additional hour with the labeled secondary antibody. Following the final incubation, the plates are washed twice and the fluorescence at λex=D640/20 nm and λem=657 nm is detected on a fluorescent reader.
The results of the microsomal assays are expressed as “GCS IC50,” which represents the concentration of the compound causing 50% inhibition of glucosylceramide synthase activity. The results of the cell-based assays are expressed as “GM3 B16 IC50” or “GM3 C32 IC50” for the B16 assay and the C32 assay, respectively. These values represent the concentration of the compound causing 50% inhibition of GM3 expression on the cell surface.

[3] = Patient 5 (reduced Compound 2 exposure), Week 52 compared to baseline

Structure (SMILES): CC(C)(NC(=O)O[C@@H]1CN2CCC1CC2)c1csc(-c2ccc(F)cc2)n1 [Compound 2, (S)-quinuclidin-3-yl 2-(2-(4-fluorophenyl)thiazol-4-yl)propan-2-ylcarbamate]
- GL-1 (% change) (glucosylceramide (GL-1); CSF Concentration, N = 6, 15 mg/day + imiglucerase): −55.4%
- GL-1 (% change) (glucosylceramide (GL-1); CSF Concentration, N=10, Patient 5 excluded): −79% ± 12.1%
- GL-1 concentration, 52-weeks (mean) (glucosylceramide (GL-1); CSF, N=10, Patient 5 excluded, Baseline 7.11 ng/ml): 1.38 ng/mL
- GL-1 concentration, 52-weeks (glucosylceramide (GL-1); CSF, Baseline 6.36 ng/ml): 2.48 ng/mL
- increase in CSF GL1 (glucosylceramide (GL-1); [3]): ~37%
- increase in plasma GL1 (glucosylceramide (GL-1); [3]): ~14%
- GL-1 (% change) (glucosylceramide (GL-1); Plasma Concentration, N = 6, 15 mg/day + imiglucerase): −71.6%
- GL-1 (% change) (glucosylceramide (GL-1); Plasma Concentration, N=10, Patient 5 excluded): −77% ± 11.7%
- GL-1 concentration, 52-weeks (mean) (glucosylceramide (GL-1); Plasma, N=10, Patient 5 excluded, Baseline 5.66 μg/mL): 1280 ng/mL
- GL-1 concentration, 52-weeks (glucosylceramide (GL-1); Plasma, Baseline 6.21 μg/mL): 1590 ng/mL
- whole brain tissue volume ([1]; Group A, 52 weeks, FIG. 1): overall increase in whole brain tissue volume
- Group A mean change in volume from Baseline to Week 52 ([1]; Left Cuneus): +37.16 mm^3
- Patient 5 change in volume from Baseline to Week 52 ([1]; Left Cuneus): −23.9 mm^3
- Group A mean change in volume from Baseline to Week 52 ([1]; Left Entorhinal Cortex): +34.53 mm^3
- Patient 5 change in volume from Baseline to Week 52 ([1]; Left Entorhinal Cortex): +41.4 mm^3
- Group A mean change in volume from Baseline to Week 52 ([1]; Left Lingual): +50.08 mm^3
- Patient 5 change in volume from Baseline to Week 52 ([1]; Left Lingual): −60.0 mm^3
- Group A mean change in volume from Baseline to Week 52 ([1]; Left Pericalcarine Lobe): +18.46 mm^3
- Patient 5 change in volume from Baseline to Week 52 ([1]; Left Pericalcarine Lobe): −29.2 mm^3
- Group A mean change in volume from Baseline to Week 52 ([1]; Left Putamen): +94.70 mm^3
- Patient 5 change in volume from Baseline to Week 52 ([1]; Left Putamen): −51.7 mm^3
- whole brain volume ([1]; Patient 5 (did not successfully undergo the treatment regime), 52 weeks, FIG. 1): decrease in whole brain volume
- Group A mean change in volume from Baseline to Week 52 ([1]; Right Accumbens Area): +12.86 mm^3
- Patient 5 change in volume from Baseline to Week 52 ([1]; Right Accumbens Area): −52.1 mm^3
- Group A mean change in volume from Baseline to Week 52 ([1]; Right Amygdala): +60.78 mm^3
- Patient 5 change in volume from Baseline to Week 52 ([1]; Right Amygdala): −63.4 mm^3
- Group A mean change in volume from Baseline to Week 52 ([1]; Right Postcentral Lobe): +91.66 mm^3
- Patient 5 change in volume from Baseline to Week 52 ([1]; Right Postcentral Lobe): −63.4 mm^3
- Group A mean change in volume from Baseline to Week 52 ([1]; Right Putamen): +97.84 mm^3
- Patient 5 change in volume from Baseline to Week 52 ([1]; Right Putamen): −63.1 mm^3
- IC50 [2]: 107 µM
